Patent US12686674B2, “Crystal form of compound represented by formula I, and preparation therefor and application thereof” (Shanghai Zhimeng Biopharma, Inc., priority 2021, dated 2026)

Experiments:
Assay type in all cases: physicochemical
[1] = Solid-state stability, placed open one and two weeks (HPLC purity, XRPD)
Description: Purity tests (HPLC) and crystal form detection (XRPD) were performed on starting samples, samples stored for one week and two weeks.

[2] = Influencing factor test of crystal form A (high temperature, high humidity, light)
Excerpt: Sample purity and solubility data were collected using an Agilent model 1260 high-performance liquid chromatograph (equipped with DAD detector). [table]

[3] = as above; conditions: High temperature (60° C.), Day 30
[4] = Hygroscopicity by DVS at 25° C.
Description: Hygroscopicity data of samples were collected using an ADVENTURE series dynamic vapor phase adsorption system (DVS) under N2 protection. Sample dosage ~30 mg. The testing method for anhydrous crystal form is as follows: • 1) Relative humidity increase process: 0% RH to 90% RH at a rate of 10% RH/stage; 90% RH to 95% RH at a rate of 5% RH/stage; • 2) Relative humidity reduction process: 95% RH to 90% RH at a rate of 5% RH/stage; 90% RH to 5% RH at a rate of 10% RH/stage. H Nuclear Magnetic Resonance Spectroscopy (H-NMR)

[5] = High humidity (25° C., 90% ± 5%), Day 5
[6] = High humidity (25° C., 90% ± 5%), Day 10
[7] = High humidity (25° C., 90% ± 5%), Day 30
[8] = High temperature (60° C.), Day 5
[9] = High temperature (60° C.), Day 10
[10] = High temperature (60° C.), Day 30
[11] = High temperature and humidity (60° C., 75% ± 5%), Day 5
[12] = High temperature and humidity (60° C., 75% ± 5%), Day 10
[13] = High temperature and humidity (60° C., 75% ± 5%), Day 30
[14] = Light exposure (25° C., 4500 Lx ± 500 Lx, NUV 0.9 w/m^2), bare sample, Day 5
[15] = Light exposure (25° C., 4500 Lx ± 500 Lx, NUV 0.9 w/m^2), bare sample, Day 10
[16] = Light exposure (25° C., 4500 Lx ± 500 Lx, NUV 0.9 w/m^2), bare sample, Day 30

## O=C1CO[C@H](c2cn(-c3ccc(Br)cc3)nc2-c2ccc(F)cc2)N1CCc1ccc2[nH]c(=O)[nH]c2c1 [Crystal form A]
[1]; 1 week, 25° C./60% RH, open
  Purity(Area %): 99.08 Area %
[1]; 1 week, 40° C./75% RH, open
  Purity(Area %): 99.07 Area %
[1]; 1 week, 60° C., open
  Purity(Area %): 99.09 Area %
[1]; 1 week, 25° C./60% RH, 40° C./75% RH, 60° C.
  change in Crystal form (XRPD): Unchanged
[1]; 2 week, 25° C./60% RH, open
  Purity(Area %): 99.12 Area %
[1]; 2 week, 40° C./75% RH, open
  Purity(Area %): 99.14 Area %
[1]; 2 week, 60° C., open
  Purity(Area %): 99.13 Area %
[1]; 2 week, 25° C./60% RH, 40° C./75% RH, 60° C.
  change in Crystal form (XRPD): Unchanged
[1]; Starting sample
  Purity(Area %): 99.12 Area %
[2]; Day 0, Table M-2
  Content (HPLC, calculated by anhydrous substance): 99.2%
  Moisture (KF): 0.11%
  Other single impurity RRT~1.10 (HPLC): 0:0.14%
  Other single impurity RRT~1.23 (HPLC): 3:0.03%
  Other single impurity RRT~1.44 (HPLC): 4:0.03%
  Other single impurity RRT~1.53 (HPLC): 3:0.03%
  Other single impurity RRT~1.87 (HPLC): 7:0.03%
  Total impurities (HPLC): 0.26%
[2]; Day 0, Table M-3
  Content (HPLC, calculated by anhydrous substance): 99.8%
  Moisture (KF): 0.11%
  Other single impurity RRT~1.10 (HPLC): 0:0.13%
  Other single impurity RRT~1.24 (HPLC): 4:0.03%
  Other single impurity RRT~1.48 (HPLC): 8:0.03%
  Other single impurity RRT~1.58 (HPLC): 8:0.03%
  Other single impurity RRT~1.97 (HPLC): 7:0.03%
  Total impurities (HPLC): 0.25%
[2]; [5]
  Content (HPLC, calculated by anhydrous substance): 99.4%
  Moisture (KF): 0.21%
  Other single impurity RRT~1.10 (HPLC): 0:0.14%
  Other single impurity RRT~1.24 (HPLC): 4:0.04%
  Other single impurity RRT~1.48 (HPLC): 8:0.03%
  Other single impurity RRT~1.59 (HPLC): 9:0.03%
  Other single impurity RRT~1.92 (HPLC): 2:0.03%
  Other single impurity RRT~1.97 (HPLC): 7:0.03%
  Total impurities (HPLC): 0.30%
[2]; [6]
  Content (HPLC, calculated by anhydrous substance): 99.7%
  Moisture (KF): 0.23%
  Other single impurity RRT~1.10 (HPLC): 0:0.13%
  Other single impurity RRT~1.24 (HPLC): 4:0.03%
  Other single impurity RRT~1.46 (HPLC): 6:0.03%
  Other single impurity RRT~1.56 (HPLC): 6:0.03%
  Other single impurity RRT~1.88 (HPLC): 8:0.03%
  Other single impurity RRT~1.93 (HPLC): 3:0.03%
  Total impurities (HPLC): 0.28%
[2]; [7]
  Content (HPLC, calculated by anhydrous substance): 101.3%
  Moisture (KF): 0.10%
  Other single impurity RRT~1.10 (HPLC): 0:0.15%
  Other single impurity RRT~1.24 (HPLC): 4:0.03%
  Other single impurity RRT~1.48 (HPLC): 8:0.03%
  Other single impurity RRT~1.59 (HPLC): 9:0.03%
  Other single impurity RRT~1.92 (HPLC): 2:0.03%
  Other single impurity RRT~1.97 (HPLC): 7:0.03%
  Total impurities (HPLC): 0.30%
[2]; [8]
  Content (HPLC, calculated by anhydrous substance): 99.1%
  Moisture (KF): 0.09%
  Other single impurity RRT~1.10 (HPLC): 0:0.13%
  Other single impurity RRT~1.24 (HPLC): 4:0.04%
  Other single impurity RRT~1.48 (HPLC): 8:0.03%
  Other single impurity RRT~1.59 (HPLC): 9:0.03%
  Other single impurity RRT~1.92 (HPLC): 2:0.03%
  Other single impurity RRT~1.97 (HPLC): 7:0.03%
  Total impurities (HPLC): 0.29%
[2]; [9]
  Content (HPLC, calculated by anhydrous substance): 99.8%
  Moisture (KF): 0.09%
  Other single impurity RRT~1.10 (HPLC): 0:0.14%
  Other single impurity RRT~1.24 (HPLC): 4:0.03%
  Other single impurity RRT~1.46 (HPLC): 6:0.03%
  Other single impurity RRT~1.56 (HPLC): 6:0.03%
  Other single impurity RRT~1.93 (HPLC): 3:0.03%
  Total impurities (HPLC): 0.26%
[2]; [10]
  Content (HPLC, calculated by anhydrous substance): 100.9%
  Other single impurity RRT~1.10 (HPLC): 0:0.14%
  Other single impurity RRT~1.24 (HPLC): 4:0.03%
  Other single impurity RRT~1.48 (HPLC): 8:0.03%
  Other single impurity RRT~1.58 (HPLC): 8:0.03%
  Other single impurity RRT~1.92 (HPLC): 2:0.03%
  Other single impurity RRT~1.97 (HPLC): 7:0.03%
  Total impurities (HPLC): 0.29%
[2]; [11]
  Content (HPLC, calculated by anhydrous substance): 99.6%
  Moisture (KF): 0.12%
  Other single impurity RRT~1.10 (HPLC): 0:0.14%
  Other single impurity RRT~1.24 (HPLC): 4:0.03%
  Other single impurity RRT~1.46 (HPLC): 6:0.03%
  Other single impurity RRT~1.56 (HPLC): 6:0.03%
  Other single impurity RRT~1.88 (HPLC): 8:0.03%
  Other single impurity RRT~1.93 (HPLC): 3:0.03%
  Total impurities (HPLC): 0.29%
[2]; [12]
  Content (HPLC, calculated by anhydrous substance): 101.3%
  Moisture (KF): 0.14%
  Other single impurity RRT~1.10 (HPLC): 0:0.14%
  Other single impurity RRT~1.24 (HPLC): 4:0.03%
  Other single impurity RRT~1.48 (HPLC): 8:0.03%
  Other single impurity RRT~1.59 (HPLC): 9:0.03%
  Other single impurity RRT~1.97 (HPLC): 7:0.03%
  Total impurities (HPLC): 0.26%
[2]; [13]
  Content (HPLC, calculated by anhydrous substance): 99.3%
  Moisture (KF): 0.14%
  Other single impurity RRT~1.10 (HPLC): 0:0.14%
  Other single impurity RRT~1.24 (HPLC): 4:0.03%
  Other single impurity RRT~1.48 (HPLC): 8:0.03%
  Other single impurity RRT~1.58 (HPLC): 8:0.03%
  Other single impurity RRT~1.96 (HPLC): 6:0.03%
  Total impurities (HPLC): 0.26%
[2]; [14]
  Content (HPLC, calculated by anhydrous substance): 99.6%
  Moisture (KF): 0.10%
  Other single impurity RRT~1.10 (HPLC): 0:0.14%
  Other single impurity RRT~1.24 (HPLC): 4:0.03%
  Other single impurity RRT~1.46 (HPLC): 6:0.03%
  Other single impurity RRT~1.56 (HPLC): 6:0.03%
  Other single impurity RRT~1.93 (HPLC): 3:0.03%
  Total impurities (HPLC): 0.26%
[2]; [15]
  Content (HPLC, calculated by anhydrous substance): 100.7%
  Moisture (KF): 0.10%
  Other single impurity RRT~1.10 (HPLC): 0:0.14%
  Other single impurity RRT~1.24 (HPLC): 4:0.03%
  Other single impurity RRT~1.48 (HPLC): 8:0.03%
  Other single impurity RRT~1.59 (HPLC): 9:0.03%
  Other single impurity RRT~1.97 (HPLC): 7:0.03%
  Total impurities (HPLC): 0.26%
[2]; [16]
  Content (HPLC, calculated by anhydrous substance): 99.8%
  Moisture (KF): 0.10%
  Other single impurity RRT~1.10 (HPLC): 0:0.13%
  Other single impurity RRT~1.24 (HPLC): 4:0.03%
  Other single impurity RRT~1.48 (HPLC): 8:0.03%
  Other single impurity RRT~1.58 (HPLC): 8:0.03%
  Other single impurity RRT~1.97 (HPLC): 7:0.03%
  Total impurities (HPLC): 0.25%
[3]
  Moisture (KF): 0.09%
[4]; DVS at 25° C.
  hygroscopicity: hardly hygroscopic
[4]; at 80% RH, 25° C.
  weight gain (DVS): 0.14%
[4]; before and after DVS test
  crystal form after DVS testing (XRPD): unchanged
